Reference: patent EP0576766A1, “Propanolamine derivatives, their preparation and use” (NOVO NORDISK A/S, priority 1992, dated 1994)
Structures can show the parent of a compound that is named as a salt.

Test system: voltage operated calcium channels (VOC)
Experiment: Inhibition of depolarization-stimulated 45Ca uptake into brain synaptosomes
Assay type: biochemical
Details: inhibition of stimulated uptake of ⁴⁵Ca in depolarized (145 mM KCl) rat cerebral cortex synaptosomes (P₂ fraction), corrected for basal uptake; 15 s incubation; estimated from dose response curves
From the text: The pharmacological properties of the compounds of the invention can be illustrated by determining their capability to inhibit calcium uptake into brain synaptosomes.
Depolarization of neuronal membranes leads to an opening of socalled "voltage operated calcium channels" (VOC) in the membranes which allows a massive influx of calcium from the extracellular space. A crude synaptosomal preparation (socalled P₂ fraction) contains small vesicles surrounded by neuronal membrane and it is possible in such a preparation to study a depolarization-induced opening of VOC.
A male Wistar rat is decapitated and the cerebral cortex removed and homogenized in 10 ml. of ice-cold 0.32 M sucrose using a glass homogenizer with a teflon pestle. All subsequent steps for isolation of synaptosomes are done at 0-4°C. The homogenate is centrifuged at 1000 x g for 10 min and the resulting supernatant is re-centrifuged at 18000 x g for 20 min. This pellet (P₂) is resuspended in 0.32 M sucrose (5 ml per g of original tissue) with a teflon pestle.
The tubes are pre-incubated for 30 min on ice and then for 6 min at 37°C in a water bath.
The incubation is continued for 15 s.
The amount of radioactivity on the filter disc is determined by liquid scintillation spectrometry.
Test substances are dissolved in 10 ml of 48% ethanol at a concentration of 0.44 mg/ml. Dilution are made in 48% ethanol to give final concentrations of 0.1, 0.3, 1, 3 and 10 µg/ml. Experiments are performed in triplicate. Controls for depolarized and nondepolarized samples are included in the assay and test substances are only tested in depolarized samples.
The test value will be given as IC₅₀ (the concentration (µg/ml) of test substance which inhibit 50% of stimulated uptake of ⁴⁵Ca (uptake in depolarized samples corrected for basal uptake in nondepolarized samples )). The IC₅₀ value is estimated from dose response curves.

SMILES: Cl.c1ccc(C(CCN2CCOCC2)Oc2ccc3c(c2)CCC3)cc1 (stereo not drawn) [Compound 2, 4-(3-(5-Indanyloxy)-3-phenylpropyl)morpholine, hydrochloride]
- IC₅₀: 16 µg/mL

SMILES: FC(F)(F)c1ccc(OC(CCN2CCOCC2)c2ccccc2)cc1.O=C(O)C(=O)O (stereo not drawn) [Compound 3, 4-(3-Phenyl-3-(4-trifluoromethylphenoxy)propyl)morpholine, oxalate]
- IC₅₀: 17 µg/mL

SMILES: CN1CCN(CCC(Oc2ccc(C(F)(F)F)cc2)c2ccccc2)CC1 (stereo not drawn) [Compound 5, 1-(3-Phenyl-3-(4-trifluoromethylphenoxy)propyl)-4-methyl piperazine, oxalate]
- IC₅₀: 7.5 µg/mL

SMILES: CN(C)CCC(Oc1cccc(C(F)(F)F)c1)c1ccc([N+](=O)[O-])cc1.Cl (stereo not drawn) [Compound 15, N,N-dimethyl-3-(4-nitrophenyl)-3-(3-trifluoromethylphenoxy)propanamine, hydrochloride]
- IC₅₀: 6.1 µg/mL

SMILES: CN(C)CCC(Oc1ccc2c(c1)CCCC2)c1ccc([N+](=O)[O-])cc1.Cl (stereo not drawn) [Compound 17, N,N-dimethyl-3-(4-nitrophenyl)-3-(5,6,7,8-tetrahydro-2-naphthoxy)propanamine, hydrochloride]
- IC₅₀: 4.9 µg/mL

SMILES: FC(F)(F)c1ccc(OC2c3ccccc3CC2CN2CCCCC2)cc1 (stereo not drawn) [Compound 20, trans-1-(1-(4-Trifluoromethylphenoxy)indan-2-yl)methyl piperidine, hydrochloride]
- IC₅₀: 8.0 µg/mL

SMILES: CC(=O)Nc1ccc(C(CCN2CCCCC2)Oc2ccc(C(F)(F)F)cc2)cc1.O=C(O)C(=O)O (stereo not drawn) [Compound 23, 1-(3-(4-Acetamidophenyl)-3-(4-trifluoromethylphenoxy)propyl)piperidine, oxalate]
- IC₅₀: 4.0 µg/mL

SMILES: CC(=O)Nc1cccc(C(CCN2CCCCC2)Oc2ccc(C(F)(F)F)cc2)c1.O=C(O)C(=O)O (stereo not drawn) [Compound 24, 1-(3-(3-Acetamidophenyl)-3-(4-trifluoromethylphenoxy)propyl)piperidine, oxalate]
- IC₅₀: 5.3 µg/mL

SMILES: N#Cc1ccc(C(CCN2CCCCC2)Oc2ccc(C(F)(F)F)cc2)cc1.O=C(O)C(=O)O (stereo not drawn) [Compound 25, 1-(3-(4-Cyanophenyl)-3-(4-trifluoromethylphenoxy)propyl)piperidine, oxalate]
- IC₅₀: 2.2 µg/mL
